Experimental data reported in patent US6555821B1, “Method for analysis of expired gas” (priority 1999, dated 2003).
“And” between values parts separate entries of the source, which are not always exact repeats. Equal values may be shown once. Values belong to the molecule of their own block, whether it stands above or below them.

Assays:
[1] = Bubbling tests: alcohol concentration in gas phase over alcohol-water solution, measured by low resolution FT-IR; type: physicochemical; conditions: for Concentration of ethanol in gas phase / Concentration of methanol in gas phase: 21.0 ± 1.0° C., 1 atm, mean ± SD of 10 spectra
[2] = as above; type: physicochemical; conditions: for Concentration of methanol in gas phase: 21.0 ± 1.0° C., 1 atm, mean ± SD of 10 spectra
Procedure: Vaporous ethanol and methanol mixtures in water were made by bubbling nitrogen gas through a corresponding liquid mixture. The purpose of measuring mixtures of ethanol and methanol was to test the applicability of the instrument for determining more than one alcohol in a gas mixture containing a large amount of water vapor like human exhaled breath. Particularly, the measurements were performed with a large ethanol:methanol ratio in order to investigate whether the instrument is able to determine a low concentration of methanol in the presence of a large amount of ethanol.

[3] = 25° C., 1 atm; Hine and Mookerjee 1975, Davidovits et al. 1995; cited from earlier work

Concentration of ethanol in gas phase ([1]; 3.17 W-% ethanol in water with methanol in liquid 0.102 w-%): 295 ± 2 ppm
Concentration of ethanol in gas phase ([1]; 3.17 W-% ethanol in water with methanol in liquid 0.159 w-%): 314 ± 4 ppm
Concentration of ethanol in gas phase ([1]; 3.17 W-% ethanol in water with methanol in liquid 0.222 w-%): 298 ± 3 ppm
Concentration of ethanol in gas phase ([1]; 3.17 W-% ethanol in water with methanol in liquid 0.317 w-%): 304 ± 2 ppm
Concentration of ethanol in gas phase ([1]; 3.17 W-% ethanol in water with methanol in liquid 0.95 w-%): 296 ± 4 ppm
Concentration of ethanol in gas phase ([1]; 3.17 W-% ethanol in water with methanol in liquid 1.59 w-%): 303 ± 5 ppm
Concentration of ethanol in gas phase ([1]; 3.17 W-% ethanol in water with methanol in liquid 3.18 w-%): 300 ± 2 ppm
Concentration of ethanol in gas phase ([1]; 3.17 W-% ethanol in water with methanol in liquid 6.36 w-%): 293 ± 3 ppm
Concentration of ethanol in gas phase ([1]; 3.17 W-% ethanol in water with methanol in liquid 15.9 w-%): 289 ± 1 ppm
ethanol in the gas phase (FIG. 1 spectrum) ([1]; 3.17 w-‰ ethanol and 0.159 w-‰ methanol in liquid phase (water), 21±1° C.): 310 ppm
Concentration of ethanol in gas phase ([1]; ethanol in liquid 0.202 w-%, water): 19.2 ± 0.1 ppm
Concentration of ethanol in gas phase ([1]; ethanol in liquid 0.5 w-%, water): 45.7 ± 0.3 ppm
Concentration of ethanol in gas phase ([1]; ethanol in liquid 1 w-%, water): 94 ± 1 ppm
Concentration of ethanol in gas phase ([1]; ethanol in liquid 1.58 w-%, water): 148 ± 2 ppm
Concentration of ethanol in gas phase ([1]; ethanol in liquid 3.16 w-%, water): 305 ± 4 ppm
Concentration of ethanol in gas phase ([1]; ethanol in liquid 6.33 w-%, water): 587 ± 4 ppm
Concentration of ethanol in gas phase ([1]; ethanol in liquid 9.49 w-%, water): 907 ± 6 ppm
Concentration of ethanol in gas phase ([1]; ethanol in liquid 15.8 w-%, water): 1466 ± 11 ppm
Concentration of ethanol in gas phase ([1]; ethanol in liquid 31.6 w-%, water): 2907 ± 4 ppm
Structure (SMILES): CCO [ethanol]

Structure (SMILES): CO [methanol]
methanol in the gas phase (FIG. 1 spectrum) ([2]; 0.159 w-‰ methanol and 3.17 w-‰ ethanol in liquid phase (water), 21±1° C.): 22.4 ppm
Concentration of methanol in gas phase ([2]; methanol in liquid 0.222 w-% in mixture of water and 3.17 W-% ethanol): 30.2 ± 0.5 ppm
Concentration of methanol in gas phase ([2]; methanol in liquid 0.95 w-% in mixture of water and 3.17 W-% ethanol): 120 ± 2 ppm
Concentration of methanol in gas phase ([2]; methanol in liquid 1.59 w-% in mixture of water and 3.17 W-% ethanol): 201 ± 3 ppm
Concentration of methanol in gas phase ([2]; methanol in liquid 3.18 w-% in mixture of water and 3.17 W-% ethanol): 402 ± 2 ppm
Concentration of methanol in gas phase ([2]; methanol in liquid 6.36 w-% in mixture of water and 3.17 W-% ethanol): 806 ± 7 ppm
water-air partition coefficient (literature Henry's law constants) [3]: 5260 and 5334
Concentration of methanol in gas phase ([1]; methanol in liquid 0.101 w-%, water): 13 ± 0.2 ppm
Concentration of methanol in gas phase ([1]; methanol in liquid 0.102 w-% in mixture of water and 3.17 W-% ethanol): 14.2 ± 0.4 ppm
Concentration of methanol in gas phase ([1]; methanol in liquid 0.159 w-% in mixture of water and 3.17 W-% ethanol): 22.2 ± 0.4 ppm
Concentration of methanol in gas phase ([1]; methanol in liquid 0.203 w-%, water): 26.9 ± 0.1 ppm
Concentration of methanol in gas phase ([1]; methanol in liquid 0.301 w-%, water): 41.6 ± 0.3 ppm
Concentration of methanol in gas phase ([1]; methanol in liquid 0.317 w-% in mixture of water and 3.17 W-% ethanol): 43.4 ± 0.4 ppm
Concentration of methanol in gas phase ([1]; methanol in liquid 0.501 w-%, water): 61 ± 1 ppm
Concentration of methanol in gas phase ([1]; methanol in liquid 1.59 w-%, water): 204 ± 2 ppm
Concentration of methanol in gas phase ([1]; methanol in liquid 3.17 w-%, water): 402 ± 2 ppm
Concentration of methanol in gas phase ([1]; methanol in liquid 6.34 w-%, water): 805 ± 4 ppm
Concentration of methanol in gas phase ([1]; methanol in liquid 9.51 w-%, water): 1207 ± 5 ppm
Concentration of methanol in gas phase ([1]; methanol in liquid 15.9 w-% in mixture of water and 3.17 W-% ethanol): 2006 ± 3 ppm
Concentration of methanol in gas phase ([1]; methanol in liquid 15.9 w-%, water): 2031 ± 14 ppm
Concentration of methanol in gas phase ([1]; methanol in liquid 31.7 w-%, water): 4067 ± 28 ppm
